Assay results: patent publication US20040002441A1, “Recombination modulators and methods for producing and using the same” (priority 2000, published 2004)

Legend:
[1] = biological target: T1, Vaccinia topoisomerase (type Ib) (Vaccinia virus, UniProt P68698); experiment: biochemical; format: biochemical
T1 construct: made in house; host or cells: Escherichia coli BL21 infected with bacteriophage λCE6

[2] = biological target: T2, E. coli topoisomerase I (type Ia) (Escherichia coli, UniProt P06612); experiment: biochemical; details: peptide concentrations up to 42 μM
T2 sequence (P06612 1-865): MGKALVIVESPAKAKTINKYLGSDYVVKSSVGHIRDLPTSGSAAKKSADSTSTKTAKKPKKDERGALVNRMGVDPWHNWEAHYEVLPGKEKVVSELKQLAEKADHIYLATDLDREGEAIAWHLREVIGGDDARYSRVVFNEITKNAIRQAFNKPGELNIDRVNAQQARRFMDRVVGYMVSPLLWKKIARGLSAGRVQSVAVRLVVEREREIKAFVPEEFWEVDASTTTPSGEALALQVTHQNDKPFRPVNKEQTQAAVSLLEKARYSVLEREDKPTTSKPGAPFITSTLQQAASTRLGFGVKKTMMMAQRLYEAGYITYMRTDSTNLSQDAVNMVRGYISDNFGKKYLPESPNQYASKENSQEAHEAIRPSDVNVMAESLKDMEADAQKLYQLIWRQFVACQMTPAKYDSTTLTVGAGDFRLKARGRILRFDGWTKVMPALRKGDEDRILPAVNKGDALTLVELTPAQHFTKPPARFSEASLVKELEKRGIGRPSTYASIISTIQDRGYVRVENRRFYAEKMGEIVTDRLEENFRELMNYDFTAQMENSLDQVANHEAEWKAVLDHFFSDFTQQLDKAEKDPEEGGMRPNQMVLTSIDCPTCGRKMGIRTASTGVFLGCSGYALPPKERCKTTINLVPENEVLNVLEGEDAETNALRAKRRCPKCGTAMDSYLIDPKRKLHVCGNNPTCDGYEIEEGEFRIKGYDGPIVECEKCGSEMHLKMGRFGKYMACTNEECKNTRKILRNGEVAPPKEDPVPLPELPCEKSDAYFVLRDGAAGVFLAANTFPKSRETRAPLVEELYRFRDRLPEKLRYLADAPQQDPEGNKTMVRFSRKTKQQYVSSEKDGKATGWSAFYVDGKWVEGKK
Description: E. coli topoisomerase I (TopA) exemplifies the type IA topoisomerase family. Type IA enzymes are mechanistically and structurally unrelated to the topoisomerase IB/tyrosine recombinase superfamily of DNA strand transferases.

[3] = biological target: T1, Vaccinia topoisomerase (type Ib); experiment: biochemical; details: peptide concentrations up to 42 μM
[4] = biological target: T3, Lambda integrase (Int) (Bacteriophage lambda) (UniProt P03700); experiment: cleavage_in_vitro
T3 sequence: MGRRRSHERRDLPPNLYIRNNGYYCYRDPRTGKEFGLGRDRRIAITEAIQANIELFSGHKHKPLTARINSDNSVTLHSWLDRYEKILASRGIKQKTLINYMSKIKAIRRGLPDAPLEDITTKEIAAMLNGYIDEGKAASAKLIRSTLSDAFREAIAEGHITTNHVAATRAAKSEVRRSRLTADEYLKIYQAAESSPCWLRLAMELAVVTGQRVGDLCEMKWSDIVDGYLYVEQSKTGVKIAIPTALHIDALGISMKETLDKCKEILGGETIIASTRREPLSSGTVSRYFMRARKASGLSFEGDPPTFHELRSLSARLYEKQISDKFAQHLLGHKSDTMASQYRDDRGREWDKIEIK

How did the “effect on transesterification (DNA cleavage)” value [1] turn out when WCHYNY was run?
Its value is “did not inhibit transesterification”.

And the “effect on DNA relaxation” value [2]?
Its value is “no effect”.

And the “effect on DNA relaxation” value [3]?
Its value is “no effect”.

How did the activity ([4]; excision with IHF and Xis, no peptide) turn out when attL + attR excision substrates was run?
The activity was over 70%.

With “excision Holliday junction (attL x attR)” as the substance, how does the activity ([4]; Int alone HJ resolution, binds weakly alone, 42.4% with IHF, 14.4% with Xis, 58.2% with IHF+Xis, 95.3% with IHF+Xis no spermidine) read?
The activity was 7.2%.
